# Test results from patent publication US5559028A, “Methods of enhancing or antigen presentation to T cells inhibiting” (Antigen Express, Inc., priority 1993, dated 1996).
# Where no end group is shown, it is not given here.
# Legend:
# cathepsin B = cathepsin B (Homo sapiens, UniProt P07858); details: cited from earlier work
# cathepsin D [1] = biological target: cathepsin D (Homo sapiens, UniProt P07339); details: cited from earlier work
# Ii = details: cited from earlier work
# [2] = system: E^k -restricted murine T cell hybridoma, TPc9.1; test: Enhancement of presentation of pigeon cytochrome C(81-104) by fixed CH27 cells to TPc9.1 T hybridoma (IL-2/IL-4, HT-2 indicator); type: cell-based
# Description: The assay was carried out as follows. 5×10^4 paraformaldehyde-fixed CH27 B lymphoma cells (antigen presenting cells) were incubated in 96-well plates with 5×10^4 TPc9.1 T hybridoma cells (irradiated 2200 rads) for 24 hrs in the presence of: no peptides, 50 μM Ii peptide only, 6 μM pigeon cytochrome C(81-104) peptide only, and 50 μM Ii peptide plus 6 μM pigeon cytochrome C(81-104) peptide. Each condition was assayed in sextuplet. After incubation, the response of the T cell hybridoma was determined by measuring the IL-2/IL-4 secreted during the 24 hr culture. The supernatants were collected and were tested for IL-2/IL-4 content by the ability to support the growth of the IL-2/ IL-4-dependent cell line HT-2 as measured by [^3 H]thymidine incorporation. The values presented in Table V are the CPM×10^-3 incorporated in the HT-2 indicator assay.
# The enhancement of responses to pigeon cytochrome C peptide (81-104) by Ii (148-164) and Ii (78-92) was assayed as a function of concentration of the added Ii peptide (Table VI). The values in the Table represent the % enhancement of the pigeon cytochrome C(81-104) peptide-specific, E^k -restricted response by the TPc9.1 murine T cell hybridoma (T) to the peptide presented by paraformaldehyde-fixed CH27 B lymphoma cells (APC). Culture supernatants were collected and were tested for IL-2/IL-4 content by the ability to support the growth of the Il-2/IL-4-dependent cell Line HT-2 as measured by the incorporation of [^3 H]thymidine. The % enhancement was calculated as: [(CPM of T+APC+peptide+Ii peptide / CPM of T+APC+peptide)×100]-100.
# cathepsin D [3] = test: Cathepsin D digestion of wild type and mutant Ii in trimers with HLA-DR1 α,β chains (SDS-PAGE of fragments); type: biochemical; details: pH 5.0, 30 min, room temperature, Jesthom microsomal membrane proteins
# Description: The lowest level of cathepsin D seen to cleave Ii was 0.1 U/ml. Solubilized microsomal membrane proteins from [^35 S]methionine-labeled Jesthom cells were treated with the cathepsin D (concentrations 0, 0.01, 0.05, 0.1, 0.5, 2.5, 10.0 U/ml) at pH 5.0 for 30 min at room temperature. At the end of the incubation, the enzyme was inactivated and immunoprecipitates with anti-class II mAb, IVA12 or with anti-Ii mAb, VIC-Y1 were formed. The immunoprecipitated samples were analyzed by SDS-PAGE and autoradiography. In a second experiment, when the lowest level of cathepsin D (0.1 U/ml) seen to cleave Ii was added to the assay for peptide binding in the presence of varying concentrations of cathepsin B (0.02-0.5 U/ml), the net level of peptide binding was enhanced about 3 times that seen without cathepsin D, as judged by densitometry of the autoradiographs. For this experiment iodinated HSAB-MA(18-29) peptide and unradiolabeled microsomal membranes were incubated with or without 0.1 U/ml cathepsin D for 10 min or 30 min in the presence of varying amounts of cathepsin B (0.02, 0.1, or 0.5 U/ml). After subsequent photoactivation and immunoprecipitation with anti-class II mAb, the samples were subjected to SDS-PAGE and autoradiography.
# CD digestions were carried out according to Reyes et al. (1991). […]
# cathepsin D (Homo sapiens, UniProt P07339), sequence (P07339 65-412, species assumed): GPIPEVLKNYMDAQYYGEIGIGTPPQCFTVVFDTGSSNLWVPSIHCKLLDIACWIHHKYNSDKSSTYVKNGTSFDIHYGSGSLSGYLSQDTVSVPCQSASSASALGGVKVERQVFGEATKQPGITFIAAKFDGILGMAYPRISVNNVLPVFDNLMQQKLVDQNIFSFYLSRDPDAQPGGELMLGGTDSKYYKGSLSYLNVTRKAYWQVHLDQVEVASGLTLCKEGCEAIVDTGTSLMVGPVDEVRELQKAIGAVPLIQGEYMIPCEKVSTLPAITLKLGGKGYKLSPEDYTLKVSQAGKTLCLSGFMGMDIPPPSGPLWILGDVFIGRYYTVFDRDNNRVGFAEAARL
Molecule,inhibition of cathepsin B (cathepsin B),inhibition of cathepsin D (cathepsin D [1]),antigen charging in vitro (Ii),final proteolysis of Ii (Ii),% enhancement of the pigeon cytochrome C(81-104) peptide-specific response ([2]; Ii peptide 1 μM) [%],% enhancement of the pigeon cytochrome C(81-104) peptide-specific response ([2]; Ii peptide 10 μM) [%],% enhancement of the pigeon cytochrome C(81-104) peptide-specific response ([2]; Ii peptide 50 μM) [%],% enhancement of the pigeon cytochrome C(81-104) peptide-specific response ([2]; Ii peptide 100 μM) [%],lowest level of cathepsin D seen to cleave Ii (cathepsin D [3]) [U/ml]
CC(=O)N[C@@H](CC(C)C)C(=O)N[C@@H](CC(C)C)C(=O)N[C@H](C=O)CCCNC(=N)N [leupeptin],inhibited,not,blocks antigen charging in vitro,limits the final proteolysis of Ii to p21 and p14 fragments,–,–,–,–,–
"ENLRHLKNTMETLDWKV [Ii (148-164), ENLRHLKNTMETLDWKV]",–,–,–,–,0,19,91,140,–
"YRMKLPKPPKPVSKMR [Ii (78-92), YRMKLPKPPKPVSKMR]",–,–,–,–,40,101,187,170,–
cathepsin D: aspartyl protease,–,–,–,–,–,–,–,–,0.1
